Columns and labels:
[1] = test system: Sprague-Dawley (SD) rats with loperamide-induced constipation; assay: Prevention of loperamide-induced constipation: number and weight of feces (Experimental Example 2); assay type: in vivo, rat
Method: Four-week-old male Sprague-Dawley (SD) rats were purchased from Damul Science (Daejeon, Korea) and bred at a temperature of 20±2° C. and a humidity of 55±5% on a 12 h light-dark cycle. The experimental animals were acclimated for 1 week after purchase and were divided into the experimental groups (5 animals per group) shown in Table 3.
All experimental groups other than the normal control (NOR) and the negative control (LOP) were administered orally the respective drugs (positive controls) or the respective fermented products of Preparative Example 4 for 5 days before loperamide administration.
The negative control (LOP), the positive controls (CON1, CON2), and all experimental groups other than the normal control (NOR) were administered subcutaneously loperamide for 5 days to induce constipation. The experimental animals were sacrificed on day 6 after initiation of the loperamide administration.

[2] = test system: Sprague-Dawley (SD) rats with loperamide-induced constipation; assay: Colonic transits of carmine dye (Experimental Example 3); assay type: in vivo, rat; settings: 20 min after oral carmine dye
Method: At day 6, 3 mL of carmine dye at a concentration of 1.5% (w/v) in physiological saline was administered orally to the experimental animals. 20 min after the oral administration, the experimental animals were sacrificed. Thereafter, in each experimental animal, both ends of the site of the colon from the appendix to the rectum were ligated. The colon site was excised and washed with PBS. The colonic transits of the carmine dye were measured from FIG. 6.

Row | Compound | Number of feces ([1]; sennoside 50 mg/kg oral before loperamide 4 mg/kg s.c. 5 days (CON1)) | Weight of feces ([1]; sennoside 50 mg/kg oral before loperamide (CON1), compared with CON2) | Colonic transit of the carmine dye ([2]; sennoside 50 mg/kg oral before loperamide (CON1)) | Weight of feces ([1]; negative control (LOP): loperamide 4 mg/kg subcutaneously for 5 days, normal control 4.8±0.89) | Number of feces ([1]; negative control (LOP): loperamide 4 mg/kg subcutaneously for 5 days, normal control 47.2±5.8) | Colonic transit of the carmine dye ([2]; negative control (LOP): loperamide 4 mg/kg s.c. 5 days, normal control 13.4±0.94 cm)
1 | sennoside | more effective in increasing the number of feces than Dulcolax-S | no significant difference in the weight of feces | significantly increased compared to that in the negative control (LOP) |  |  | 
2 | CN(C)C(=O)C(CCN1CCC(O)(c2ccc(Cl)cc2)CC1)(c1ccccc1)c1ccccc1 [loperamide] |  |  |  | 2.6±0.32 | 23.1±3.6 | 6.6±0.75 cm
